Measurements reported in PubChem BioAssay AID2060893 (Molecular Pharmacology Branch, DTP, NCI, 2025).

System: K86415-001-R-J1-PDC complex spheroids, viability
Experiment: Anticancer human tumor K86415-001-R-J1-PDC patient-derived lung adenocarcinoma cell line growth inhibition [RAS]
Details: for IC50: curve of first compound; for viability, T/C: stronger effect = lower value
Description: RAS pathway inhibitors in Combinations in Complex Spheroids
A high-throughput screen of multi-cell type tumor spheroids was designed to identify active combinations of RAS pathway inhibitors and targeted small molecules. Complex spheroids include a stromal component modeled by human endothelial cells (HUVEC) and fibroblasts modeled by human mesenchymal stem cells (MSCs). The concentration ranges selected for each drug and investigational agent were based upon clinically achievable concentrations if the clinical Cmax of the agent was known.
Compounds. The drugs and investigational agents: abemaciclib (NSC768073), cobimetinib (NSC768068), divarasib (GDC6063, NSC841802), docetaxel (NSC628503), GDC-1971 (RLY-1971, NSC841576), gemcitabine (NSC613327), inavolisib (NSC800729), ipatasertib (NSC767898), KB-0742 (NSC834161), MRTX-1133 (NSC836407), osimertinib (NSC779217), RMC-4630 (NSC839698), RMC-6236 (NSC851965), RMC-6291 (NSC852671), Ro-3306 (NSC812927), sapanisertib (NSC764658), SN-38 (NSC673596), staurosporine (NSC755774), SY5609 (NSC837396), and tovorafenib (DAY101, NSC766906), were obtained from the National Cancer Institute (NCI) Developmental Therapeutics Program Chemical Repository. The FDA-approved anticancer drug set is available from the NCI Developmental Therapeutics Program. […] The stock solutions were prepared in dimethyl sulfoxide (DMSO, Sigma-Aldrich, St. Louis, MO, cat. D2650) at 800-fold the tested concentration and stored at -70 degrees C prior to their use. All drugs and investigational agents were tested over a range starting from a high concentration at or near the clinical Cmax and decreasing in half-log increments. If the clinical Cmax for an agent had not been determined, the highest concentration tested was 10 microM.
Cell Culture. All cells were maintained in an incubator at 37 degrees C and 5% CO2 with 95% humidity. The PDC lines were cultured according to standard operating procedures established by the NCI PDMR. All PDCs were thawed and cultured in Matrigel-coated flasks prepared with a working solution of 1X Ham's F-12 nutrient mix, without supplementation (Invitrogen, Waltham, MA, cat. 11765054), 100 U/mL penicillin-streptomycin (Invitrogen, cat. 15140122), and 2.5% Matrigel (Corning Inc., Corning, NY, cat. 354248) for the first three passages. The 362531-283-R-J2-PDC and 782815-120-R-J1-PDC lines were cultured in 6C/Colon 1B media, which includes advanced DMEM/F-12 (Thermo Fisher Scientific, cat. 12634028), 10 mM HEPES (Thermo Fisher Scientific, cat. 15630080), 1X GlutaMAX supplement (Thermo Fisher Scientific, cat. 35050061), 0.1 mg/mL primocin (InvivoGen, San Diego, CA, cat. ant-pm-2), 10% defined fetal bovine serum, heat inactivated (HyClone Laboratories Inc., Logan, UT, cat. SH30070.03HI), 50% L-WRN conditioned media (ATCC, cat. CRL-3276), 1.25 mM N-Acetyl-L-cysteine (Sigma-Aldrich, cat. A9165), 10 mM nicotinamide (Sigma-Aldrich, cat. N0636), 1X B-27 supplement (Thermo Fisher Scientific, cat. 17504044), 1X N-2 supplement (Thermo Fisher Scientific, cat. 17502048), 50 ng/mL human EGF (Thermo Fisher Scientific, cat. PHG0311), and 10 microM Y-27632 dihydrochloride (Tocris Bioscience, cat. 1254). The K12877-001-R-J1-PDC line was cultured in 6I media, which includes all 6C/Colon 1B media plus 10 ng/mL human FGF-10 (PeproTech, cat. 100-26), 1 ng/mL human FGF-2 (PeproTech, cat. 100-18B), 1 µM prostaglandin E2 (Tocris Bioscience, cat. 2296), […] hydrocortisone (Sigma-Aldrich, cat. H4001), and […] bovine insulin (Sigma-Aldrich, cat. I6634). The K86415-001-R-J1-PDC line was cultured in 6D media, which includes all 6C/Colon 1B media components minus the L-WRN conditioned media. The 485176-168-R4-J1-PDC was cultured in PANC media, which includes all 6C/Colon 1B media plus 100 ng/mL human FGF-10 (PeproTech, cat. 100-26), 500 nM SB-431542 (Selleckchem, cat. S1067), and 10 nM gastrin (Tocris Bioscience, cat. 3006). […]

[1] = second compound 0.000949 µM, first compound 0.00316 µM
[2] = second compound 0.000949 µM, first compound 0.01 µM
[3] = second compound 0.000949 µM, first compound 0.0316 µM
[4] = second compound 0.000949 µM, first compound 0.1 µM
[5] = second compound 0.003 µM, first compound 0.00316 µM
[6] = second compound 0.003 µM, first compound 0.01 µM
[7] = second compound 0.003 µM, first compound 0.0316 µM
[8] = second compound 0.003 µM, first compound 0.1 µM
[9] = second compound 0.00949 µM, first compound 0.00316 µM
[10] = second compound 0.00949 µM, first compound 0.01 µM
[11] = second compound 0.00949 µM, first compound 0.0316 µM
[12] = second compound 0.00949 µM, first compound 0.1 µM
[13] = second compound 0.03 µM, first compound 0.00316 µM
[14] = second compound 0.03 µM, first compound 0.01 µM
[15] = second compound 0.03 µM, first compound 0.0316 µM
[16] = second compound 0.03 µM, first compound 0.1 µM
[17] = second compound 0.0949 µM, first compound 0.00316 µM
[18] = second compound 0.0949 µM, first compound 0.01 µM
[19] = second compound 0.0949 µM, first compound 0.0316 µM
[20] = second compound 0.0949 µM, first compound 0.1 µM
[21] = second compound 0.3 µM, first compound 0.00316 µM
[22] = second compound 0.3 µM, first compound 0.01 µM
[23] = second compound 0.3 µM, first compound 0.0316 µM
[24] = second compound 0.3 µM, first compound 0.1 µM
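Also: spheroids exposed to agents for seven days before readout.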

## CC(C)n1nc(-c2ccc3oc(N)nc3c2)c2c(N)ncnc21 + CCn1c(-c2cccnc2C(C)OC)c2c3cc(ccc31)N1CCOC(CC(NC(=O)C(C(C)C)N(C)C(=O)C3(F)CCN(C(=O)C#CC(C)(C)N(C)C)CC3)C(=O)N3CCCC(N3)C(=O)OCC(C)(C)C2)C1
Second compound 0.000949 µM
  IC50: < 0.316 nM
Second compound 0.003 µM
  IC50: < 0.316 nM
Second compound 0.00949 µM
  IC50: < 0.316 nM
Second compound 0.03 µM
  IC50: < 0.316 nM
Second compound 0.0949 µM
  IC50: < 0.316 nM
Second compound 0.3 µM
  IC50: < 0.316 nM
Second compound 0.000949 µM, first compound 0.000316 µM
  viability, T/C: 34%
Second compound 0.000949 µM, first compound 0.001 µM
  viability, T/C: 35.4%
[1]
  viability, T/C: 23.2%
[2]
  viability, T/C: 41.4%
[3]
  viability, T/C: 24.4%
[4]
  viability, T/C: 5.51%
Second compound 0.003 µM, first compound 0.000316 µM
  viability, T/C: 13%
Second compound 0.003 µM, first compound 0.001 µM
  viability, T/C: 12.1%
[5]
  viability, T/C: 10.7%
[6]
  viability, T/C: 14.7%
[7]
  viability, T/C: 8.1%
[8]
  viability, T/C: 3.6%
Second compound 0.00949 µM, first compound 0.000316 µM
  viability, T/C: 13.2%
Second compound 0.00949 µM, first compound 0.001 µM
  viability, T/C: 9.19%
[9]
  viability, T/C: 10.9%
[10]
  viability, T/C: 13.8%
[11]
  viability, T/C: 7.68%
[12]
  viability, T/C: 2.81%
Second compound 0.03 µM, first compound 0.000316 µM
  viability, T/C: 12.8%
Second compound 0.03 µM, first compound 0.001 µM
  viability, T/C: 10.7%
[13]
  viability, T/C: 11.1%
[14]
  viability, T/C: 12.4%
[15]
  viability, T/C: 5.85%
[16]
  viability, T/C: 3.42%
Second compound 0.0949 µM, first compound 0.000316 µM
  viability, T/C: 10.1%
Second compound 0.0949 µM, first compound 0.001 µM
  viability, T/C: 11%
[17]
  viability, T/C: 10.1%
[18]
  viability, T/C: 12.7%
[19]
  viability, T/C: 4.18%
[20]
  viability, T/C: 2.27%
Second compound 0.3 µM, first compound 0.000316 µM
  viability, T/C: 14.4%
Second compound 0.3 µM, first compound 0.001 µM
  viability, T/C: 11.3%
[21]
  viability, T/C: 12.1%
[22]
  viability, T/C: 7.79%
[23]
  viability, T/C: 4.23%
[24]
  viability, T/C: 2.06%

## CCN1CCN(Cc2ccc(Nc3ncc(F)c(-c4cc(F)c5nc(C)n(C(C)C)c5c4)n3)nc2)CC1 + CCn1c(-c2cc(N3CCN(C)CC3)cnc2C(C)OC)c2c3cc(ccc31)-c1csc(n1)CC(NC(=O)C1CC1C)C(=O)N1CCCC(N1)C(=O)OCC(C)(C)C2
Second compound 0.000949 µM
  IC50: < 3.16 nM
Second compound 0.003 µM
  IC50: < 3.16 nM
Second compound 0.00949 µM
  IC50: < 3.16 nM
Second compound 0.03 µM
  IC50: < 3.16 nM
Second compound 0.0949 µM
  IC50: < 3.16 nM
Second compound 0.3 µM
  IC50: < 3.16 nM
[1]
  viability, T/C: 47.9%
[2]
  viability, T/C: 40.1%
[3]
  viability, T/C: 34.3%
[4]
  viability, T/C: 34.2%
Second compound 0.000949 µM, first compound 0.316 µM
  viability, T/C: 35.9%
Second compound 0.000949 µM, first compound 1 µM
  viability, T/C: 40.8%
[5]
  viability, T/C: 21.5%
[6]
  viability, T/C: 17.4%
[7]
  viability, T/C: 17.5%
[8]
  viability, T/C: 19.1%
Second compound 0.003 µM, first compound 0.316 µM
  viability, T/C: 26.6%
Second compound 0.003 µM, first compound 1 µM
  viability, T/C: 23.5%
[9]
  viability, T/C: 12.5%
[10]
  viability, T/C: 10.9%
[11]
  viability, T/C: 10.3%
[12]
  viability, T/C: 11.9%
Second compound 0.00949 µM, first compound 0.316 µM
  viability, T/C: 10.6%
Second compound 0.00949 µM, first compound 1 µM
  viability, T/C: 8.22%
[13]
  viability, T/C: 5.68%
[14]
  viability, T/C: 6.29%
[15]
  viability, T/C: 3.09%
[16]
  viability, T/C: 5.81%
Second compound 0.03 µM, first compound 0.316 µM
  viability, T/C: 4.33%
Second compound 0.03 µM, first compound 1 µM
  viability, T/C: 3.19%
[17]
  viability, T/C: 3.17%
[18]
  viability, T/C: 3.79%
[19]
  viability, T/C: 3.86%
[20]
  viability, T/C: 3.09%
Second compound 0.0949 µM, first compound 0.316 µM
  viability, T/C: 2.31%
Second compound 0.0949 µM, first compound 1 µM
  viability, T/C: 1.64%
[21]
  viability, T/C: 2.92%
[22]
  viability, T/C: 3.03%
[23]
  viability, T/C: 2.27%
[24]
  viability, T/C: 1.73%
Second compound 0.3 µM, first compound 0.316 µM
  viability, T/C: 1.63%
Second compound 0.3 µM, first compound 1 µM
  viability, T/C: 1.66%
